The structures appear in SMILES notation. Peptide text beside a SMILES is read from it.

This note sets out measurements from paper PMC4785407, “Reduction Impairs the Antibacterial Activity but Benefits the LPS Neutralization Ability of Human Enteric Defensin 5” (Scientific Reports, 2016).

This experiment relates to E. coli ML35 (ATCC 43827) outer membrane. The experiment can be described thus: Outer membrane penetration (NPN uptake assay). In kind it is cell-based. The note with it: 6.25 μg/mL, 10 mM sodium phosphate buffer pH 7.4, 37 °C, 1 h; vs HD5OX. The protocol:
Then, an aliquot of 10 μL of NPN (Sigma 104043) was added, resulting in a final concentration of 10 μM. After excitation at 350 nm, the fluorescent intensity was measured in the range from 380-450 nm at intervals of 2 nm using a Tecan Infinite […] microplate reader.

For `CC[C@H](C)[C@H](NC(=O)[C@H](CCC(=O)O)NC(=O)[C@H](CS)NC(=O)[C@@H](NC(=O)CNC(=O)[C@H](CO)NC(=O)[C@H](CC(C)C)NC(=O)[C@H](CO)NC(=O)[C@H](CCC(=O)O)NC(=O)[C@H](CCCNC(=N)N)NC(=O)[C@@H](NC(=O)[C@H](C)NC(=O)[C@H](CS)NC(=O)[C@H](CCCNC(=N)N)NC(=O)CNC(=O)[C@@H](NC(=O)[C@H](CCCNC(=N)N)NC(=O)[C@H](CS)NC(=O)[C@H](Cc1ccc(O)cc1)NC(=O)[C@H](CS)NC(=O)[C@@H](NC(=O)[C@H](C)N)[C@@H](C)O)[C@@H](C)O)[C@@H](C)O)C(C)C)C(=O)N[C@@H](CO)C(=O)NCC(=O)N[C@@H](CCCNC(=N)N)C(=O)N[C@@H](CC(C)C)C(=O)N[C@@H](Cc1ccc(O)cc1)C(=O)N[C@@H](CCCNC(=N)N)C(=O)N[C@@H](CC(C)C)C(=O)N[C@@H](CS)C(=O)N[C@@H](CS)C(=O)N[C@@H](CCCNC(=N)N)C(=O)O` [HD5RED] (H-ATCYCRTGRCATRESLSGVCEISGRLYRLCCR-OH), the “outer membrane destruction (NPN fluorescence intensity)” value was “destroys the outer membrane less effectively than HD5OX”.
